In PMC5131891, “Structural Insights into Streptococcal Competence Regulation by the Cell-to-Cell Communication System ComRS” (PLoS Pathogens, 2016):
Where two headings read alike, the source gives them in different places. Peptide text beside a SMILES is read from it.

Legend:
[1] = system: ComR from S. thermophilus; set-up: method as in 2 sources, ref [30] = [30]; PMID 23323845; doi:10.1111/mmi.12157; 30 Fontaine L , Goffin P , Dubout H , Delplace B , Baulard A , Lecat-Guillet N , et al Mechanism of competence activation by the ComRS signalling system in streptococci . Mol Microbiol . 2013; 87 ( 6 ||| ref [29] = [29]; PMID 20023010; doi:10.1128/JB.01251-09; 29 Fontaine L , Boutry C , de Frahan MH , Delplace B , Fremaux C , Horvath P , et al A novel pheromone quorum-sensing system controls the development of natural competence in Streptococcus thermophilu; details: cited from earlier work; for in vivo activation efficiency / activation of ComR: previous analysis, ComR from S. thermophilus, ref [30]; for activity of heptapeptide ComS18-24: previous study, lacking the N-terminal Leucine, ref [29]
[2] = target: ComR WT (Streptococcus thermophilus, UniProt A0A1L1QK15); assay: biochemical; type: binding, Streptococcus thermophilus LMD-9; details: for Kd: Table 2 (WT and variant XIPs), ITC, 20°C, 20 mM Tris-HCl pH 8.0, 150 mM NaCl, 1 mM EDTA, 50 μM protein in cell, 500 μM peptide in syringe, one-binding-site model, apparent KD, read-out: KD
Procedure: Purification of ComR-StreptagII proteins (StreptagII at C-terminus) was performed as described previously with some modifications. E. coli strain BL21 Gold cultures were grown in 2YT medium at 15°C until an OD600 of ~ 0.5, cooled down on ice for 10 minutes, and induced by addition of 0.2% of L-arabinose (wt vol^-1) before continuous shaking at 28°C for 4 h. Cells were then harvested by centrifugation (5,000 × g during 15 min at 8°C). The pellets were resuspended in cold buffer W (100 mM Tris-HCl pH 8.0, 150 mM NaCl, 1 mM EDTA) supplemented with 0.5 mg ml^−1 of lysozyme, incubated for 30 min at 4°C, and sonicated at 4°C. […] For structural and biophysical analyses, the purification protocol was completed by a size exclusion chromatography step using a HiLoad 16/600 Superdex 75 prep grade column (GE Healthcare) equilibrated in buffer W plus 10% (vol vol^-1) glycerol. Purified proteins were aliquoted, flash frozen and conserved at -20°C. Their purity was visualized by SDS-PAGE and their concentrations were measured using a Nanodrop apparatus (protein A280 method) (ThermoFisher Scientific).
Isothermal titration calorimetry (ITC) experiments were performed at 20°C in 20 mM Tris-HCl pH 8.0, 150 mM NaCl, 1 mM EDTA with an ITC200 calorimeter (Microcal). The protein concentration in the microcalorimeter cell and the peptide concentration in the syringe were set at 50 μM and 500 μM, respectively. A first injection of 0.4 μl, which was not taken into account for the fitting, was followed by 20 injections of 2 μl at intervals of 180 s. The peptide concentration used in the calculations is based on the weight of the lyophilized peptide and is therefore inaccurate because there may be a significant quantity of bound water, and salts or counter ions. However, the calculated number of binding sites, n, is always close to 1, in agreement with the 1:1 ratio observed in the crystal structure of the ternary complex. […] The data were analyzed using the MicroCal Origin software provided by the manufacturer. […] It was therefore not possible to distinguish the two events and the fitting was performed with the one-binding-site model. The calculated KD are therefore apparent values.

[3] = target: ComR from Streptococcus thermophilus LMD-9 (ComR-StreptagII, wild type) (Streptococcus thermophilus LMD-9); assay: ITC; peptide 500 μM in the syringe, ComR 50 μM in the cell; 20°C; 20 mM Tris-HCl pH 8.0, 150 mM NaCl, 1 mM EDTA; one-binding-site model; apparent KD (peptide binding and dimerization not told apart)

GAWYYVPL [casein-derived octapeptide GAWYYVPL]
in vivo activation efficiency / activation of ComR [1]: also activated

VPFFMIYY [type I peptide VPFFMIYY from S. vestibularis]
in vivo activation efficiency / activation of ComR [1]: more efficiently activated by the type II peptide MGLDWWSL from S. mutans than by the type I peptide VPFFMIYY

ComS18-24: heptapeptide ComS18-24 lacking the N-terminal Leucine, minimal active form of the signaling peptide (PYFAGCL)
activity of heptapeptide ComS18-24 [1]: also fully active | activity of heptapeptide ComS18-24 ([1]; listed as heptapeptide 18–24): minimal active form of the signaling peptide

LAYFYPEL [casein-derivative peptide LAYFYPEL]
in vivo activation efficiency / activation of ComR [1]: inactive

CC(C)C[C@H](N)C(=O)N1CCC[C@H]1C(=O)N[C@@H](Cc1ccc(O)cc1)C(=O)N[C@@H](Cc1ccccc1)C(=O)N[C@@H](C)C(=O)NCC(=O)N[C@@H](CS)C(=O)N[C@@H](C)C(=O)O [L24A] (H-LPYFAGCA-OH)
affinity in words [2]: the affinity of the peptide decreases drastically | Kd [2]: 1550 ± 332 nM

CC(C)C[C@H](NC(=O)[C@H](CS)NC(=O)CNC(=O)[C@H](C)NC(=O)[C@H](Cc1ccccc1)NC(=O)[C@H](C)NC(=O)[C@@H]1CCCN1C(=O)[C@@H](N)CC(C)C)C(=O)O [Y19A] (H-LPAFAGCL-OH)
affinity in words [2]: only little impact on the affinity of the protein | Kd [2]: 52 ± 13 nM

MGLDWWSL [type II peptide MGLDWWSL from S. mutans]
in vivo activation efficiency / activation of ComR [1]: more efficiently activated by the type II peptide MGLDWWSL from S. mutans than by the type I peptide VPFFMIYY

CC(C)C[C@H](NC(=O)[C@H](CS)NC(=O)CNC(=O)[C@H](C)NC(=O)[C@H](C)NC(=O)[C@H](Cc1ccc(O)cc1)NC(=O)[C@@H]1CCCN1C(=O)[C@@H](N)CC(C)C)C(=O)O [F20A] (H-LPYAAGCL-OH)
affinity in words [2]: the affinity of the peptide decreases drastically | Kd [2]: 2130 ± 226 nM

LPYAAGCL [XIP F20A variant (ComS 17-24 with F20A)]
Kd [3]: 2130 nM | stoichiometry N [3]: 1.2

LPAFAGCL [XIP Y19A variant (ComS 17-24 with Y19A)]
Kd [3]: 52 nM | stoichiometry N [3]: 1.5

LPYFAGCA [XIP L24A variant (ComS 17-24 with L24A)]
Kd [3]: 1550 nM | stoichiometry N [3]: 1.75
